Molecular target: T1, URAT1 F449A (Homo sapiens, UniProt Q96S37, F449A)
T1 construct: expressed in transfected cells; host or cells: HEK293 cells (ATCC, CRL-3216), transient transfection
T1 sequence (Q96S37 1-553 F449A): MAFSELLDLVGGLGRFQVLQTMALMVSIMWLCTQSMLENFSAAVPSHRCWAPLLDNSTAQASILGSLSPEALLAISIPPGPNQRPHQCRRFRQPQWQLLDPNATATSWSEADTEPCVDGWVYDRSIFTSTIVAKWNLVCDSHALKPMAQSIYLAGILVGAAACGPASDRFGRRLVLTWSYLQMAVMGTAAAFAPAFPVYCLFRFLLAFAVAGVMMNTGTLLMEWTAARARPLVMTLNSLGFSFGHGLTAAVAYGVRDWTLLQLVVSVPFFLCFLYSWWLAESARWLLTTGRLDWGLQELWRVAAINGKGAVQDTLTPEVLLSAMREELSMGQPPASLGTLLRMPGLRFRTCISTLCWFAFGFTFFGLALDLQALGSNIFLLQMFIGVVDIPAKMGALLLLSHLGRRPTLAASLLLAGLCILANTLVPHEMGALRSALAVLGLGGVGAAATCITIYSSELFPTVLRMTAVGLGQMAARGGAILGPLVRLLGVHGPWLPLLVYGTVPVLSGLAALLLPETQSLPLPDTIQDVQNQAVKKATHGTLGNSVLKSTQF
Assay type: cell-based
Details: dose-response of 14C-urate uptake, Fig. 6c
From the text: Fig. 6 Dotinurad inhibition and the mechanism of URAT1 transport. a Structure of dotinurad-bound URAT1. Detailed interactions between dotinurad and URAT1 are shown on the right. b Dotinurad-binding pocket, depicted in a top view looking down from the extracellular side. c Dose-response curves of URAT1 variants with mutations in the dotinurad-binding site, using the same buffer as defined in Fig. 1 legend. Data are shown as mean ± SD; n = 3 biological replicates. d Comparison between the dotinurad-bound and apo structures. e Schematic diagram of URAT1 importing urate. […]
Human embryonic kidney (HEK) 293 cells (ATCC, CRL-3216) were seeded onto poly(D-lysine)-coated 96-well plates at a density of 0.3 × 10^5 cells per well and cultured at 37 °C until reaching approximately 70%–80% confluence. […] The cells were then lysed in 0.1 M NaOH, and the lysed samples were added to scintillation liquid to measure radioactivity using a PerkinElmer Microbeta2 counter.
For dose-response assays, the cells were incubated with urate and increasing concentrations of inhibitors. […] Nonspecific uptake was measured in each plate in non-transfected cells, and this value was subtracted from the total uptake to obtain the URAT1-specific uptake. To compare the uptake signals among URAT1 variants, the mVenus fluorescence intensity of each construct was measured using fluorescence-detection size-exclusion chromatography[49] […]

## O=C(c1cc(Cl)c(O)c(Cl)c1)N1CS(=O)(=O)c2ccccc21 [dotinurad]
  Effect of F449A mutation on drug sensitivity: completely eliminating URAT1’s sensitivity

Source: publication PMC11528023, “Transport mechanism and structural pharmacology of human urate transporter URAT1” (Cell Research, 2024)
